pIC50: −log10 of the molar value.
Test: Inhibition of LCK in human peripheral T cells assessed as suppression of TCR-dependant cell proliferation

pIC50: 5.42
Structure (SMILES): Cc1c(-c2c(F)cc(C(N)=O)c3[nH]c4c(c23)CC[C@H](C(C)(C)O)C4)cccc1-n1c(=O)c2cccc(F)c2n(C)c1=O

Source: BindingDB's records for doi:10.1021/acs.jmedchem.6b01088 (Bristol Myers Squibb, 2016)
